According to PubChem BioAssay AID2060627 (Molecular Pharmacology Branch, DTP, NCI, 2025):
“And” between values parts separate entries of the source, which are not always exact repeats. Equal values may be shown once.

Test system: 156681-154-R-J1-PDC complex spheroid viability
Experiment: Anticancer human tumor 156681-154-R-J1-PDC patient-derived melanoma cell line growth inhibition [CLK]
Details: for viability, T/C: stronger effect = lower value
Excerpt: A high-throughput screen of multi-cell type tumor spheroids was designed to identify active combinations of […] and targeted small molecules. Complex spheroids include a stromal component modeled by human endothelial cells (HUVEC) and fibroblasts modeled by human mesenchymal stem cells (MSCs). The concentration ranges selected for each drug and investigational agent were based upon clinically achievable concentrations if the clinical Cmax of the agent was known.
Compounds. The drugs and investigational agents: cirtuvivint (SM08502; NSC835563), CC-671 (NSC850746), vemurafenib (NSC761431), tapotoclax (NSC804041), sotorasib (NSC818433), adagrasib (NSC831453), MRTX-1133 (NSC836407), BAY2416964 (NSC825713), copanlisib (NSC816437), inavolisib (NSC800729), abemaciclib (NSC768073), osimertinib (NSC779217), entinostat (NSC756642), eltanexor (KPT-8602, NSC794443), venetoclax (NSC766270), ceralasertib (NSC777638), bortezomib (NSC756655), olaparib (NSC753686), talazoparib (NSC767125), alisertib (NSC759677), peposertib (NSC802822), gemcitabine (NSC613327), 5-fluorouracil (NSC19893), SN-38 (NSC673596), oxaliplatin (NSC266046), paclitaxel (NSC125973), and doxorubicin (NSC123127), were obtained from the National Cancer Institute (NCI) Developmental Therapeutics Program Chemical Repository. The FDA-approved anticancer drug set is available from the Developmental Therapeutics Program at https://dtp.cancer.gov/organization/dscb/obtaining/available plates.htm. […] The stock solutions were prepared in dimethyl sulfoxide (DMSO, Sigma-Aldrich, St. Louis, MO, cat. D2650), except for the platinum complexes which were prepared in saline (Quality Biological, Gaithersburg, MD, cat. 114-055-101), at 800-fold the tested concentration and stored at -70 degrees C prior to their use. All drugs and investigational agents were tested over a range starting from a high concentration at or near the clinical Cmax and decreasing in half-log increments. If the clinical Cmax for an agent had not been determined, the highest concentration tested was 10 microM.
Cell Culture. All cells were maintained in an incubator at 37 degrees C and 5% CO2 with 95% humidity. The PDC lines were cultured according to standard operating procedures established by the NCI PDMR. Briefly, all PDCs were thawed and cultured in Matrigel-coated flasks prepared with a working solution of 1X Ham's F-12 nutrient mix, without supplementation (Invitrogen, Waltham, MA, cat. 11765054), 100 U/mL penicillin-streptomycin (Invitrogen, cat. 15140122), and 2.5% Matrigel (Corning Inc., Corning, NY, cat. 354248) for the first three passages. The 947758-054-R-J2-PDC line was cultured in 6B/Colon 1A media, which includes advanced DMEM/F-12 (Thermo Fisher Scientific, cat. 12634028), 10 mM HEPES (Thermo Fisher Scientific, cat. 15630080), 1X GlutaMAX supplement (Thermo Fisher Scientific, cat. 35050061), 0.1 mg/mL primocin (InvivoGen, cat. ant-pm-2), 10% defined fetal bovine serum, heat inactivated (HyClone Laboratories Inc., cat. SH30070.03HI), 1.25 mM N-Acetyl-L-cysteine (Sigma-Aldrich, cat. A9165), 10 mM nicotinamide (Sigma-Aldrich, cat. N0636), 1X B-27 supplement (Thermo Fisher Scientific, cat. 17504044), 1X N-2 supplement (Thermo Fisher Scientific, cat. 17502048), and 10 microM Y-27632 dihydrochloride (Tocris Bioscience, cat. 1254). The 876862-298-R-J1-PDC was cultured in 6E media, which includes all 6B/Colon 1A media components plus 50% L-WRN conditioned media (ATCC, cat. CRL-3276), 50 ng/mL recombinant human EGF recombinant protein (hEGF; Thermo Fisher Scientific, cat. PHG0311), 10 ng/mL recombinant human fibroblast growth factor 10 (hGFG-10; PeproTech, cat. 100-26), 1 ng/mL recombinant human fibroblast growth factor 2 (hFGF-2; PeproTech, cat. 100-18B), and 1 µM prostaglandin E2 (PGE2; Tocris, cat. 2296). The 227483-062-R1-J1-PDC line was cultured in Panc media, containing all 6E components except hFGF-2, with the addition of 500 nM SB-431542 (Selleckchem, cat. S1067) and 10 nM gastrin (Tocris, cat. 3006). […]
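Note: spheroids exposed to the agents for seven days.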
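Throughout, for viability, T/C: 100% = DMSO vehicle control viability.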

## CC1COCCN1c1cc(C2(S(C)(=N)=O)CC2)nc(-c2ccnc3[nH]ccc23)n1 (stereo unspecified) + CNC(=O)c1ccc(Nc2nc(OC3CCCC3)c3c(-c4ccc5nc(C)oc5c4)c[nH]c3n2)c(OC)c1
Curve of first compound, second compound 0.0316 µM
  IC50: 1420 nM
Curve of first compound, second compound 0.1 µM
  IC50: 846 nM
Curve of first compound, second compound 0.316 µM
  IC50: 757 nM
Curve of first compound, second compound 1 µM
  IC50: 600 nM
Curve of first compound, second compound 3.16 µM
  IC50: 166 nM
Curve of first compound, second compound 10 µM
  IC50: 43 nM
Second compound 0.0316 µM, first compound 0.0316 µM
  viability, T/C: 102%
Second compound 0.0316 µM, first compound 0.1 µM
  viability, T/C: 110%
Second compound 0.0316 µM, first compound 0.316 µM
  viability, T/C: 86.5%
Second compound 0.0316 µM, first compound 1 µM
  viability, T/C: 61%
Second compound 0.0316 µM, first compound 3.16 µM
  viability, T/C: 27.7%
Second compound 0.0316 µM, first compound 10 µM
  viability, T/C: 14.3%
Second compound 0.1 µM, first compound 0.0316 µM
  viability, T/C: 60%
Second compound 0.1 µM, first compound 0.1 µM
  viability, T/C: 76.3%
Second compound 0.1 µM, first compound 0.316 µM
  viability, T/C: 71.9%
Second compound 0.1 µM, first compound 1 µM
  viability, T/C: 45.1%
Second compound 0.1 µM, first compound 3.16 µM
  viability, T/C: 23.3%
Second compound 0.1 µM, first compound 10 µM
  viability, T/C: 13.1%
Second compound 0.316 µM, first compound 0.0316 µM
  viability, T/C: 68.1%
Second compound 0.316 µM, first compound 0.1 µM
  viability, T/C: 70.3%
Second compound 0.316 µM, first compound 0.316 µM
  viability, T/C: 66.6%
Second compound 0.316 µM, first compound 1 µM
  viability, T/C: 44.2%
Second compound 0.316 µM, first compound 3.16 µM
  viability, T/C: 24.8%
Second compound 0.316 µM, first compound 10 µM
  viability, T/C: 17.8%
Second compound 1 µM, first compound 0.0316 µM
  viability, T/C: 63.4%
Second compound 1 µM, first compound 0.1 µM
  viability, T/C: 55.5%
Second compound 1 µM, first compound 0.316 µM
  viability, T/C: 54.7%
Second compound 1 µM, first compound 1 µM
  viability, T/C: 45.4%
Second compound 1 µM, first compound 3.16 µM
  viability, T/C: 16%
Second compound 1 µM, first compound 10 µM
  viability, T/C: 7.92%
Second compound 3.16 µM, first compound 0.0316 µM
  viability, T/C: 61.8%
Second compound 3.16 µM, first compound 0.1 µM
  viability, T/C: 49.1%
Second compound 3.16 µM, first compound 0.316 µM
  viability, T/C: 42.9%
Second compound 3.16 µM, first compound 1 µM
  viability, T/C: 43.4%
Second compound 3.16 µM, first compound 3.16 µM
  viability, T/C: 14.4%
Second compound 3.16 µM, first compound 10 µM
  viability, T/C: 8.47%
Second compound 10 µM, first compound 0.0316 µM
  viability, T/C: 51.5%
Second compound 10 µM, first compound 0.1 µM
  viability, T/C: 47.3%
Second compound 10 µM, first compound 0.316 µM
  viability, T/C: 30.1%
Second compound 10 µM, first compound 1 µM
  viability, T/C: 30.7%
Second compound 10 µM, first compound 3.16 µM
  viability, T/C: 15.5%
Second compound 10 µM, first compound 10 µM
  viability, T/C: 7.43%

## CC(=O)O[C@H]1C(=O)[C@@]2(C)[C@H]([C@H](OC(=O)c3ccccc3)[C@]3(O)C[C@H](OC(=O)[C@H](O)[C@@H](NC(=O)c4ccccc4)c4ccccc4)C(C)=C1C3(C)C)[C@]1(OC(C)=O)CO[C@@H]1C[C@@H]2O
Compound 0.0316 µM
  viability, T/C: 19.9% and 16%
Compound 0.1 µM
  viability, T/C: 13.5% and 12.5%
Compound 0.316 µM
  viability, T/C: 14.8% and 14.5%
Compound 1 µM
  viability, T/C: 23.2% and 18.2%
Compound 3.16 µM
  viability, T/C: 26.6% and 27.1%
Compound 10 µM
  viability, T/C: 26.6% and 32.9%
Curve of compound
  IC50: < 31.6 nM

## O=C(c1cc(Cc2n[nH]c(=O)c3ccccc23)ccc1F)N1CCN(C(=O)C2CC2)CC1
Compound 0.0316 µM
  viability, T/C: 92.3% and 97.7%
Compound 0.1 µM
  viability, T/C: 72.3% and 78.8%
Compound 0.316 µM
  viability, T/C: 72% and 85.3%
Compound 1 µM
  viability, T/C: 83.4% and 78.3%
Compound 3.16 µM
  viability, T/C: 72.3% and 90.1%
Compound 10 µM
  viability, T/C: 56.2% and 57.6%
Curve of compound
  IC50: > 10000 nM
